Measured values from ChEMBL document CHEMBL1944569, “QSAR study and synthesis of new phenyltropanes as ligands of the dopamine transporter (DAT)” (Bioorg Med Chem, 2012).

Columns and labels:
[1] = target: T1, Sodium-dependent dopamine transporter (Homo sapiens, UniProt Q01959); assay: Displacement of [3H]WIN35428 from human cloned DAT receptor expressed in human HEK293 cells; format: cell-based
[2] = Lipophilicity, log D of the compound in octanol-water at pH 7.4 by reverse-phase HPLC analysis
[3] = target: T2, Sodium-dependent dopamine transporter (Rattus norvegicus, UniProt P23977); assay: Displacement of [3H]GBR-12935 from rat cloned striatal DAT receptor
T2 sequence (P23977 whole entry): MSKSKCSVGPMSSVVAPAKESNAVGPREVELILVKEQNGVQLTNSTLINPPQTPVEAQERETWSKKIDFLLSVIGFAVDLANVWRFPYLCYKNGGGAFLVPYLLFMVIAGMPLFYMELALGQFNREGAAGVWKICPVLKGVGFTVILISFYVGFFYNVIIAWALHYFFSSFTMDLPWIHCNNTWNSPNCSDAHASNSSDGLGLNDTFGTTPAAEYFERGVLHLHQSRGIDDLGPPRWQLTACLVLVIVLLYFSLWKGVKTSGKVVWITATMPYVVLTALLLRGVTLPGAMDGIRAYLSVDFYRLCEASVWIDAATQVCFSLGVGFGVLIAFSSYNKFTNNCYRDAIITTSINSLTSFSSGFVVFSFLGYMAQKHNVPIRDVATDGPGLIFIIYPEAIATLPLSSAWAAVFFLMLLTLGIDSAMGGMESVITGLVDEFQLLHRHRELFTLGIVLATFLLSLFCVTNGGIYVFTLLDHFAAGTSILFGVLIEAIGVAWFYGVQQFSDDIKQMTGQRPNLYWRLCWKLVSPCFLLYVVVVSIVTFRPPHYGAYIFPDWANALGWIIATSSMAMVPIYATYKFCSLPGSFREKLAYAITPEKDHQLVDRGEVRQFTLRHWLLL

[4] = target: T2, Sodium-dependent dopamine transporter; assay: Displacement of [3H]WIN35428 from rat cloned striatal DAT receptor
Homo sapiens [5] = species: Homo sapiens; assay: Selectivity ratio of compound Ki for human cloned NET receptor to Ki for human DAT receptor
[6] = target: Sodium-dependent serotonin transporter (Homo sapiens, UniProt P31645); assay: Displacement of [3H]Citalopram from human cloned SERT receptor expressed in HEK293 cells; format: cell-based
Sodium-dependent serotonin transporter, sequence (P31645 whole entry): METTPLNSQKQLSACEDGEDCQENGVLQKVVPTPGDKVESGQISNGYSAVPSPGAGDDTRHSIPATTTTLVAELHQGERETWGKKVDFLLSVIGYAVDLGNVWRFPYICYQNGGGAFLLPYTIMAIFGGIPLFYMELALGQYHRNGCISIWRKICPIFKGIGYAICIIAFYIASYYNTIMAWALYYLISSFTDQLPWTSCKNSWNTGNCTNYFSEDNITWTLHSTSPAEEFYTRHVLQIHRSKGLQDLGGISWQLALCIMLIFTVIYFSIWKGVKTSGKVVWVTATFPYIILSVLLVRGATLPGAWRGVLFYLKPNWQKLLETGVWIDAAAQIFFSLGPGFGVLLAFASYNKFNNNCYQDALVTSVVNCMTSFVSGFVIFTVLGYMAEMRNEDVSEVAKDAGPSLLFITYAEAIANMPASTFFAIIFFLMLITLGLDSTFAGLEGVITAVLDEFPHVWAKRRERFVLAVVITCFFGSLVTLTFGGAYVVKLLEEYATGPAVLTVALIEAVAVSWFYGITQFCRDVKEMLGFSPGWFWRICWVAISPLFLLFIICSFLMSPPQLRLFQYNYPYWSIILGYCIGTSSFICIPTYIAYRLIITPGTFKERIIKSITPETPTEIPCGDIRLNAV

[7] = target: T1, Sodium-dependent dopamine transporter; assay: Ratio of PE2I Ki to compound Ki for human cloned DAT receptor
[8] = target: T1, Sodium-dependent dopamine transporter; assay: Ratio of LBT999 Ki to compound Ki for human cloned DAT receptor
Homo sapiens [9] = species: Homo sapiens; assay: Selectivity ratio of compound Ki for human cloned SERT receptor to Ki for human DAT receptor
[10] = target: Sodium-dependent noradrenaline transporter (Homo sapiens, UniProt P23975); assay: Displacement of [3H]nisoxetine from human cloned NET receptor expressed in HEK293 cells; format: cell-based
Sodium-dependent noradrenaline transporter, sequence (P23975 whole entry): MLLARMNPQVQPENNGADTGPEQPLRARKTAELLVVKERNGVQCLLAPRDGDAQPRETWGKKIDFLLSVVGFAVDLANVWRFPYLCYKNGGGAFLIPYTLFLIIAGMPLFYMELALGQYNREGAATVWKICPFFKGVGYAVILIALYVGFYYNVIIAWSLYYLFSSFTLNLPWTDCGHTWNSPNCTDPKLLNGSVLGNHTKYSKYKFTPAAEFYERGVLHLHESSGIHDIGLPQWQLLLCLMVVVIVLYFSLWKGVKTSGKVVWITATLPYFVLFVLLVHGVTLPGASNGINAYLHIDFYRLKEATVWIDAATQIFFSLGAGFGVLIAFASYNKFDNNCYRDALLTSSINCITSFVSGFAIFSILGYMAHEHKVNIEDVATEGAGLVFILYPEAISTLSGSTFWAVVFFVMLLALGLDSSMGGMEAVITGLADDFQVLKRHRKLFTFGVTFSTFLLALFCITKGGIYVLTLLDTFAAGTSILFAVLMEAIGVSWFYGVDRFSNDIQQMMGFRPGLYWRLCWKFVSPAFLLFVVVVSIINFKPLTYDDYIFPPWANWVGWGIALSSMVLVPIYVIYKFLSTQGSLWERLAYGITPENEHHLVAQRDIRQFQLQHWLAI

T1 sequence (Q01959 whole entry): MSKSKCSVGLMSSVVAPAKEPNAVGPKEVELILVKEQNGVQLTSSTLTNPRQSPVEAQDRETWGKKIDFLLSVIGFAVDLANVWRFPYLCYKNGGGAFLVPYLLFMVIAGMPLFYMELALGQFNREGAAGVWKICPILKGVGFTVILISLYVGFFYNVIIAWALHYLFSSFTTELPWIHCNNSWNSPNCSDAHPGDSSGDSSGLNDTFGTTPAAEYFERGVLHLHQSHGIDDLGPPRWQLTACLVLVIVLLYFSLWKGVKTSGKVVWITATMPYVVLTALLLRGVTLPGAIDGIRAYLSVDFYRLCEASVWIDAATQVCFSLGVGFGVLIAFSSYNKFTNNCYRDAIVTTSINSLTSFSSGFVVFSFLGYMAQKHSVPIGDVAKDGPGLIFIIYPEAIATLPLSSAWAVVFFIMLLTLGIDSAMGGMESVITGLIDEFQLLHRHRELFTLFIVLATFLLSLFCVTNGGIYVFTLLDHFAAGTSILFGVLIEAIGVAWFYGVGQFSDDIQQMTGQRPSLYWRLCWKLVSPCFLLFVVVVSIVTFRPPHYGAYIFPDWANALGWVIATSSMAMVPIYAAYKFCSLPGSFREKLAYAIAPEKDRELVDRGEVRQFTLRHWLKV

SMILES | Ki ([1]; read-out: pKi (converted)) [nM] | other results
CCCc1ccc([C@H]2C[C@@H]3CC[C@H]([C@H]2C(=O)OC)N3C)cc1 | 501 | 
COC(=O)[C@H]1[C@@H](c2ccc(I)cc2)C[C@@H]2CC[C@H]1N2C/C=C/I | 30.2 | 
COC(=O)[C@H]1[C@@H](c2ccc(C)c(I)c2)C[C@@H]2CC[C@H]1N2 | 112 | 
Oc1ccc2ccccc2c1 [BETANAPHTHOL] |  | logD [2]: 2.7
O=C(OCCF)[C@H]1[C@@H](c2cccc(/C=C/I)c2)C[C@@H]2CC[C@H]1N2 | 275 | 
CCc1ccc([C@H]2C[C@@H]3CC[C@H]([C@H]2C(=O)OC)N3C)cc1I | 339 | 
COC(=O)[C@H]1[C@@H](c2ccc(I)cc2)C[C@H]2N[C@@H]1C[C@H]2C |  | IC50 [3]: 2450 nM
COC(=O)[C@H]1[C@@H](c2ccc(I)cc2)C[C@@H]2CC[C@H]1N2Cc1ccccc1 | 41.7 | 
CCOC(=O)[C@H]1[C@@H](c2ccc(Cl)cc2)C[C@@H]2CC[C@H]1N2Cc1ccc(F)cc1 |  | IC50 [4]: 7.08 nM
O=C(OCCF)[C@H]1[C@@H](c2ccc(/C=C\I)cc2)C[C@@H]2CC[C@H]1N2 | 13.2 | 
O=[N+]([O-])c1cccc(O)c1 [3-NITRO-PHENOL] |  | logD [2]: 2
COC(=O)[C@H]1[C@@H](c2ccc(I)cc2)C[C@@H]2CC[C@H]1N2C/C=C/CF | 0.501 | 
CN1[C@@H]2CC[C@H]1[C@H](C(=O)OCc1ccccc1)[C@@H](OC(c1ccc(F)cc1)c1ccc(F)cc1)C2 | 49 | 
COC(=O)[C@H]1[C@@H](c2ccc(F)cc2)C[C@@H]2CC[C@H]1N2C/C=C/CF | 9.55 | 
COC(=O)[C@H]1[C@@H](c2ccc(Cl)c(Cl)c2)C[C@@H]2CC[C@H]1N2C | 6.31 | 
COC(=O)[C@H]1[C@@H](c2ccc(C)cc2)C[C@@H]2CC[C@H]1N2C/C=C/CF |  | logD [2]: 4.1
CCCc1ccc([C@H]2C[C@@H]3CC[C@@H](N3)[C@H]2C(=O)OC)cc1I | 501 | 
C[C@H](CF)OC(=O)[C@H]1[C@@H](c2ccc(Cl)cc2)C[C@@H]2CC[C@H]1N2C | 3.24 | 
COC(=O)[C@H]1[C@@H](c2ccc(I)cc2)C[C@@H]2CC[C@H]1N2CCCF [IOFLUPANE] | 28.2 | 
COC(=O)[C@H]1[C@@H](c2ccc(C)c(I)c2)C[C@@H]2CC[C@H]1N2C | 46.8 | 
CCc1ccc([C@H]2C[C@@H]3CC[C@H]([C@H]2C(=O)OC)N3C)cc1 | 501 | 
CC(C)OC(=O)[C@@H]1[C@@H](OC(c2ccc(F)cc2)c2ccc(F)cc2)C[C@H]2CC[C@@H]1N2C | 30.9 | 
CN1[C@H]2CC[C@@H]1[C@@H](C(=O)OCCc1ccccc1)[C@@H](c1ccc(Cl)c(Cl)c1)C2 | 11 | 

SMILES | Ki ([1]; read-out: pKi (converted)) [nM] | other results
Nc1ccccc1 [ANILINE] |  | logD [2]: 0.9
CCCCc1ccc([C@H]2C[C@@H]3CC[C@H]([C@H]2C(=O)OC)N3C)cc1 | 501 | 
Cc1ccc([C@H]2C[C@@H]3CC[C@H]([C@H]2C(=O)OC/C=C/I)N3C)cc1 |  | IC50 [4]: 191 nM
Cc1ccc([C@H]2C[C@@H]3CC[C@H]([C@H]2C(=O)OC/C=C\I)N3C)cc1 |  | IC50 [4]: 39.8 nM
COC(=O)[C@H]1[C@@H](c2ccccc2)C[C@@H]2CC[C@H]1N2C [TROPARIL] | 33.1 | 
CN1[C@H]2CC[C@@H]1[C@@H](C(=O)OCCc1ccc(N=[N+]=[N-])c(I)c1)[C@@H](c1ccc(Cl)cc1)C2 | 14.1 | 
CN1[C@H]2CC[C@@H]1[C@@H](c1nnc(-c3ccccc3)o1)[C@@H](c1ccc(Cl)cc1)C2 |  | IC50 [4]: 2450 nM
Cc1ccc([C@H]2C[C@@H]3CC[C@H]([C@H]2C(=O)OCCF)N3C/C=C/I)cc1 | 12 | 
COC(=O)[C@H]1[C@@H](c2ccc(C)cc2)C[C@@H]2CC[C@H]1N2C | 32.4 | 
COC(=O)[C@H]1[C@@H](c2ccc(C(C)C)cc2)C[C@@H]2CC[C@H]1N2C | 501 | 
COC(=O)[C@H]1[C@@H](c2ccc(C(C)C)c(I)c2)C[C@@H]2CC[C@H]1N2 | 501 | 
COC(=O)[C@H]1[C@@H](c2ccc(I)cc2)C[C@@H]2[C@H](C)C[C@H]1N2C |  | IC50 [3]: 794 nM
COC(=O)[C@H]1[C@@H](c2ccc(Cl)c(Cl)c2)C[C@@H]2CC[C@H]1N2C/C=C/I | 28.8 | 
COC(=O)[C@H]1[C@@H](c2ccccc2)C[C@@H]2CC[C@H]1N2C/C=C/I | 115 | 
COC(=O)[C@H]1[C@@H](c2ccc(C(C)C)c(I)c2)C[C@@H]2CC[C@H]1N2C | 501 | 
COC(=O)[C@H]1[C@@H](c2ccc(I)cc2)C[C@@H]2CC[C@H]1N2C | 35.5 | 
COC(=O)C1C2CCC(C2)CC1c1ccc(Cl)c(Cl)c1 (stereo not given) |  | IC50 [4]: 3.31 nM
COC(=O)[C@H]1[C@@H](c2ccccc2)C[C@@H]2CC[C@H]1N2CC#CCF |  | IC50 [4]: 3.02 nM
CCc1ccc([C@H]2C[C@@H]3CC[C@@H](N3)[C@H]2C(=O)OC)cc1I | 263 | 
CN1[C@H]2CC[C@@H]1[C@@H](c1nc(-c3ccccc3)no1)[C@@H](c1ccc(Cl)cc1)C2 |  | IC50 [4]: 794 nM
CCOC(=O)[C@H]1[C@@H](c2ccc(C)cc2)C[C@@H]2CC[C@H]1N2Cc1ccc(F)cc1 |  | IC50 [4]: 29.5 nM
CCCCc1ccc([C@H]2C[C@@H]3CC[C@H]([C@H]2C(=O)OC)N3C)cc1I | 372 | 
C=C(Br)CN1[C@H]2CC[C@@H]1[C@@H](C(=O)OC)[C@@H](c1ccc(I)cc1)C2 | 30.2 | 

SMILES | Ki ([1]; read-out: pKi (converted)) [nM] | other results
COC(=O)[C@H]1[C@@H](c2ccc(F)cc2)C[C@@H]2CC[C@H]1N2CCCF | 47.9 | 
CCCCc1ccc([C@H]2C[C@@H]3CC[C@@H](N3)[C@H]2C(=O)OC)cc1I | 372 | 
COC(=O)C1C2CCC(CC1c1ccc(Cl)c(Cl)c1)O2 (stereo not given) |  | IC50 [4]: 9.77 nM
ClCc1ccccc1 [(CHLOROMETHYL)BENZENE] |  | logD [2]: 2.3
C/C=C/CN1[C@H]2CC[C@@H]1[C@@H](C(=O)OC)[C@@H](c1ccc(I)cc1)C2 | 15.1 | 
C[C@@H](CF)OC(=O)[C@H]1[C@@H](c2ccc(Cl)cc2)C[C@@H]2CC[C@H]1N2C | 0.676 | 
CN1[C@H]2CC[C@@H]1[C@@H](C(=O)OCc1ccccc1)[C@@H](c1ccc(Cl)c(Cl)c1)C2 | 34.7 | 
COC(=O)[C@H]1[C@@H](c2ccc(I)cc2)C[C@@H]2CC[C@H]1N2Cc1ccccc1C | 93.3 | 
O=C(OCCF)[C@H]1[C@@H](c2cccc(/C=C\I)c2)C[C@@H]2CC[C@H]1N2 | 89.1 | 
COC(=O)[C@H]1[C@@H](c2ccc(F)cc2)C[C@@H]2CC[C@H]1N2CCF | 70.8 | 
COC(=O)[C@H]1[C@@H](c2ccc(C)cc2)C[C@@H]2CC[C@H]1N2C/C(I)=C/C(F)(F)F |  | Ratio Ki (Homo sapiens [5]): 216; Ki [6]: > 1000 nM; Ratio Ki [7]: 20; Ratio Ki [8]: 10; logD [2]: 5.5; Ratio Ki (Homo sapiens [9]): 10000; Ki [10]: 188 nM; Ki ([1]; read-out: Ki): 0.87 nM
C#CCN1[C@H]2CC[C@@H]1[C@@H](C(=O)OC)[C@@H](c1ccc(I)cc1)C2 | 14.1 | 
COc1ccc([C@H]2C[C@@H]3CC[C@H]([C@H]2C(=O)OC(C)C)N3C)cc1 |  | pIC50 [4]: 7.85
COC(=O)[C@H]1[C@@H](c2ccc(C)cc2)C[C@@H]2CC[C@H]1N2C/C=C(\I)C(F)(F)F |  | Ki [6]: 251 nM; logD [2]: 5.3; Ki [10]: 426 nM; Ki ([1]; read-out: Ki): 116 nM
CCCc1ccc([C@H]2C[C@@H]3CC[C@H]([C@H]2C(=O)OC)N3C/C=C/I)cc1 | 372 | 
COC(=O)[C@H]1[C@@H](c2ccc(C)cc2)C[C@@H]2CC[C@H]1N2C/C=C/I | 17 | logD [2]: 4.9; Ki [10]: > 500 nM; Ki ([1]; read-out: Ki): 17 nM
CC(C)OC(=O)[C@H]1[C@@H](c2ccc(Cl)c(Cl)c2)C[C@@H]2CC[C@H]1N2C | 18.2 | 
CCCc1ccc([C@H]2C[C@@H]3CC[C@H]([C@H]2C(=O)OC)N3C)cc1I | 501 | 
COC(=O)[C@H]1[C@@H](c2ccc(C(C)C)cc2)C[C@@H]2CC[C@H]1N2C/C=C/I | 372 | 
CCOc1ccc([C@H]2C[C@@H]3CC[C@H]([C@H]2C(=O)OC)N3C)cc1 |  | pIC50 [4]: 7.04
c1ccc(-c2ccccc2)cc1 [BIPHENYL] |  | logD [2]: 4.01
